Measured values: patent publication US10815222B2, “Compounds for use in the treatment of kinetoplastid infection” (C.N.C.C.S. S.c.a.r.l. COLLEZIONE NAZIONALE DEI COMPOSTI …, priority 2016, dated 2020)
pEC50: −log10 of the molar value.

tested on: Bloodstream form of Trypanosoma brucei, strain Lister 427; assay: Trypanosoma brucei growth inhibition assay (CellTiter-Glo, 24 h); format: cell-based; conditions: Trypanosoma brucei; T. Brucei Growth Inibition Assay, class symbols; read-out: T. Brucei GI EC50
Description: Bloodstream form of Trypanosoma brucei, strain Lister 427 (provided by Prof. Miguel Navarro, Instituto de Parasitologia y Biomedicina “Lopez-Neyra” Avda. Conocimiento S/N Parque Tecnologico Ciencias de la Salud—Spain; ref. Navarro M. and Cross G. A. M. Molecular and Cellular Biology, 1996, Vol. 16, No. 7, pp. 3615-3625) were grown in IMDM Iscove's Modified Dulbecco's Medium (SIGMA #17633) supplemented with: 3.024 g/l sodium bicarbonate, hypoxanthine 1 mM, thymidine 0.16 mM, bathocuprione sulfonic acid 0.05 mM, cysteine 1.5 mM, ß-mercaptoethanol […] and 10% foetal bovine serum (heat-inactivated at 56° C. for 30 min). Parasites were grown at 37° C. in flasks with vented caps in a 5% CO2 incubator to a maximum cell density of about 2×10^6/ml and diluted every two-three days.
The compounds of the invention were dissolved in DMSO and transferred to assay plates by acoustic droplet ejection (ATS-100, EDC Biosystems, USA) in order to obtain an appropriate concentration and to keep the concentration of DMSO below or equal to 0.25% in the final assay volume of 30 μL. 1500 parasites resuspended in 30 μL of culture medium were then transferred to each well of a 384-well plate.
After an incubation period of 24 hours at 37° C., each well is added 15 μl of CellTiter-Glo® Reagent (Promega) and incubated at room temperature. 5-10 min post incubation, the plate is read using a luminometer (ViewLux®). A known inhibitor of the growth of T. brucei was used as the reference positive control.

SMILES	pEC50
COc1nc2ccccc2cc1-c1cnc(C2CN(CC3CCOC3)CCN2C(=O)Cn2c(C#N)nc3ccccc32)[nH]1 (stereo not shown)	5.30 to 6.00
O=C(Cc1c[nH]c2ncccc12)N1CCCCC1c1ncc(-c2ccc3ccccc3c2)[nH]1 (stereo not shown)	5.30 to 6.00
COc1nc2ccccc2cc1-c1cnc([C@@H]2CN(CC3CCOC3)CCN2C(=O)Cn2c(C(N)=O)nc3ccccc32)[nH]1 (stereo partly shown)	6.00 to 6.29
COc1nc2ccccc2cc1-c1cnc(C2COCCN2C(=O)Cn2c(C)nc3ccccc32)[nH]1 (stereo not shown)	5.30 to 6.00
O=C(Cc1c[nH]c2ncccc12)N1CCOCC1c1ncc(-c2ccc3ccccc3c2)[nH]1 (stereo not shown)	5.30 to 6.00
CN1CCN(C(=O)Cc2ccncc2)C(c2ncc(-c3ccc4ccccc4c3)[nH]2)C1 (stereo not shown)	5.30 to 6.00
CN1CCN(C(=O)CCS(=O)(=O)c2ccccc2)C(c2ncc(-c3ccc4ccccc4c3)[nH]2)C1 (stereo not shown)	5.30 to 6.00
COc1ccc2nc(C)n(CC(=O)N3CCN(CC4CCOC4)C[C@H]3c3ncc(-c4cc5ccccc5[nH]4)[nH]3)c2c1 (stereo partly shown)	5.30 to 6.00
COc1nc2ccccc2cc1-c1cnc([C@@H]2CN(CC3CCOC3)CCN2C(=O)Cn2cc(C(F)(F)F)nc2C)[nH]1 (stereo partly shown)	5.30 to 6.00
COc1nc2ccccc2cc1-c1cnc([C@@H]2CN(CC3CCOC3)CCN2C(=O)C(C)(C)n2c(C(F)(F)F)nc3ccccc32)[nH]1 (stereo partly shown)	5.30 to 6.00
COc1nc2ccccc2cc1-c1cnc([C@@H]2CN(CC3CCOC3)CCN2C(=O)Cn2c(C)nc3cncnc32)[nH]1 (stereo partly shown)	6.30 to 7.00
COc1nc2ccccc2cc1-c1cnc([C@@H]2CN(CC3CCOC3)CCN2C(=O)Cn2c(C)nc3ccc(S(C)(=O)=O)cc32)[nH]1 (stereo partly shown)	6.30 to 7.00
COc1nc2ccccc2cc1-c1cnc([C@@H]2CN(CC3CCOC3)CCN2C(=O)Cn2c(C(F)(F)F)nc3ncccc32)[nH]1 (stereo partly shown)	5.30 to 6.00
COc1nc2ccccc2cc1-c1cnc([C@@H]2CN(CC3CCOC3)CCN2C(=O)Cn2c(C)nc3cc(C(F)(F)F)ccc32)[nH]1 (stereo partly shown)	6.30 to 7.00
COc1nc2ccccc2cc1-c1cnc([C@@H]2CN(CC3CCOC3)CCN2C(=O)Cn2c(S(C)(=O)=O)nc3ccccc32)[nH]1 (stereo partly shown)	6.30 to 7.00
COc1nc2ccccc2cc1-c1cnc([C@@H]2CN(CC3CCOC3)CCN2C(=O)Cn2c(C)nc3ncncc32)[nH]1 (stereo partly shown)	5.30 to 6.00
COc1nc2ccccc2cc1-c1cnc([C@@H]2CN(CC3CCOC3)CCN2C(=O)Cn2c(CC(F)(F)F)nc3ccccc32)[nH]1 (stereo partly shown)	6.30 to 7.00
COc1ccc2nc(C)n(CC(=O)N3CCC(O)C[C@H]3c3ncc(-c4cc5ccccc5nc4OC)[nH]3)c2c1 (stereo partly shown)	6.00 to 6.29
COc1ccc2nc(C(F)(F)F)n(CC(=O)N3CC[C@@H](N(C)C)C[C@H]3c3ncc(-c4cc5ccccc5nc4OC)[nH]3)c2c1	6.00 to 6.29
COc1nc2ccccc2cc1-c1cnc(C2COCCN2C(=O)Cn2nnc3ccccc32)[nH]1 (stereo not shown)	5.30 to 6.00
COc1nc2ccccc2cc1-c1cnc(C2COCCN2C(=O)Cn2nc(C)c3ccccc3c2=O)[nH]1 (stereo not shown)	5.30 to 6.00
COc1nc2ccccc2cc1-c1cnc([C@@H]2CN(CC3CCOC3)CCN2C(=O)Cn2c(C3CCC3)nc3ccccc32)[nH]1 (stereo partly shown)	6.30 to 7.00
CN1CCN(C(=O)Cc2ccccc2F)C(c2ncc(-c3ccc4ccccc4c3)[nH]2)C1 (stereo not shown)	5.30 to 6.00

SMILES	pEC50
COc1ccc(CC(=O)N2CCN(C)CC2c2ncc(-c3ccc4ccccc4c3)[nH]2)cc1 (stereo not shown)	5.30 to 6.00
COc1nc2ccccc2cc1-c1cnc(C2COCCN2C(=O)Cc2c(C)[nH]c3ccc(F)cc23)[nH]1 (stereo not shown)	6.00 to 6.29
COc1nc2ccccc2cc1-c1cnc([C@@H]2CN(CC3CCOC3)CCN2C(=O)Cc2noc3ccc(F)cc23)[nH]1 (stereo partly shown)	5.30 to 6.00
COc1ccc2onc(CC(=O)N3CCN(CC4CCOC4)C[C@H]3c3ncc(-c4cc5ccccc5nc4OC)[nH]3)c2c1 (stereo partly shown)	6.30 to 7.00
COc1ccc2nc(C(F)(F)F)n(CC(=O)N3CCN(CCc4csc(C)n4)CCC3c3ncc(-c4cc5ccccc5nc4OC)[nH]3)c2c1 (stereo not shown)	6.30 to 7.00
COc1ccc2nc(C(F)(F)F)n(CC(=O)N3CCN(Cc4noc(C)n4)CCC3c3ncc(-c4cc5ccccc5nc4OC)[nH]3)c2c1 (stereo not shown)	6.30 to 7.00
COc1ccc2nc(C(F)(F)F)n(CC(=O)N3CCOCC3c3ncc(-c4cc5ccccc5nc4OC)[nH]3)c2c1 (stereo not shown)	6.30 to 7.00
COc1ccc2nc(C(F)(F)F)n(CC(=O)N3CCN(CC4COC4)CCC3c3ncc(-c4cc5ccccc5nc4OC)[nH]3)c2c1 (stereo not shown)	6.30 to 7.00
COc1ccc2nc(C(F)(F)F)n(CC(=O)N3CC[C@@H](NCc4nccs4)C[C@H]3c3ncc(-c4cc5ccccc5nc4OC)[nH]3)c2c1	6.30 to 7.00
COc1ccc2nc(C(F)(F)F)n(CC(=O)N3CC[C@@H](NC4CCOC4)C[C@H]3c3ncc(-c4cc5ccccc5nc4OC)[nH]3)c2c1 (stereo partly shown)	6.30 to 7.00
COc1ccc2nc(C(F)(F)F)n(CC(=O)N3CCN(C)CCC3c3ncc(-c4cc5ccccc5nc4OC)[nH]3)c2c1 (stereo not shown)	6.00 to 6.29
COc1ccc2nc(C)n(CC(=O)N3CC[C@H](N(C)Cc4cnccn4)C[C@H]3c3ncc(-c4cc5ccccc5nc4OC)[nH]3)c2c1	6.30 to 7.00
COc1ccc2nc(C)n(CC(=O)N3CCS(=O)(=O)CC3c3ncc(-c4cc5ccccc5nc4OC)[nH]3)c2c1 (stereo not shown)	5.30 to 6.00
COc1ccc2nc(C)n(CC(=O)N3CCN(CC4CCOC4)C[C@H]3c3ncc(-c4ccc5ccccc5n4)[nH]3)c2c1 (stereo partly shown)	5.30 to 6.00
COc1ccc2nc(C)n(CC(=O)N3CCCCC3c3ncc(-c4cc5ccccc5nc4OC)[nH]3)c2c1 (stereo not shown)	6.30 to 7.00
COc1ccc2nc(C)n(CC(=O)N3CCN(CC4CCOC4)C[C@H]3c3ncc(-c4cnc5ccccc5c4)[nH]3)c2c1 (stereo partly shown)	6.00 to 6.29
COc1ccc2nc(C)n(CC(=O)N3CCN(CC4COC4)CCC3c3ncc(-c4cc5ccccc5nc4OC)[nH]3)c2c1 (stereo not shown)	6.00 to 6.29
COc1ccc2nc(C)n(CC(=O)N3CCN(C[C@H]4CCOC4)CC3c3ncc(-c4ccc(-c5ccccc5)nc4OC)[nH]3)c2c1 (stereo partly shown)	6.30 to 7.00
COc1ccc2nc(C)n(CC(=O)N3CCN(C)CCC3c3ncc(-c4cc5ccccc5nc4OC)[nH]3)c2c1 (stereo not shown)	5.30 to 6.00
COc1ccc2nc(C)n(CC(=O)N3CCOCC3c3ncc(-c4cc5ccccc5nc4OC)[nH]3)c2c1 (stereo not shown)	5.30 to 6.00
COc1ccc2nc(C)n(CC(=O)N3CCN(CC4CCOC4)C[C@H]3c3ncc(-c4ccc(-c5ccccc5)nc4OC)[nH]3)c2c1 (stereo partly shown)	6.00 to 6.29
COc1ccc2nc(C)n(CC(=O)N3CCN(CC4CCOC4)C[C@H]3c3ncc(-c4ccc5ncccc5c4)[nH]3)c2c1 (stereo partly shown)	5.30 to 6.00
COc1ccc2nc(C)n(CC(=O)N3CCN(Cc4cnccn4)CCC3c3ncc(-c4cc5ccccc5nc4OC)[nH]3)c2c1 (stereo not shown)	6.30 to 7.00

SMILES	pEC50
COc1ccc2nc(C)n(CC(=O)N3CCN(C[C@@H]4CCOC4)CC3c3ncc(-c4ccc(-c5ccccc5)nc4OC)[nH]3)c2c1 (stereo partly shown)	5.30 to 6.00
COc1ccc2cc(C)n(CC(=O)N3CCCCC3c3ncc(-c4cc5ccccc5nc4OC)[nH]3)c2c1 (stereo not shown)	6.30 to 7.00
COc1ccc2cc(C)n(CC(=O)N3CCS(=O)(=O)CC3c3ncc(-c4cc5ccccc5nc4OC)[nH]3)c2c1 (stereo not shown)	6.00 to 6.29
COc1ccc2cc(C)n(CC(=O)N3CCOCC3c3ncc(-c4cc5ccccc5nc4OC)[nH]3)c2c1 (stereo not shown)	6.00 to 6.29
COc1ccc2cc(C)n(CC(=O)N3CCN(C)CCC3c3ncc(-c4cc5ccccc5nc4OC)[nH]3)c2c1 (stereo not shown)	6.00 to 6.29
CN1CCN(C(=O)Cc2noc3ccccc23)C(c2ncc(-c3ccc4ccccc4c3)[nH]2)C1 (stereo not shown)	5.30 to 6.00
CCC(=O)CCCN1CCN(C(=O)Cn2ccnn2)C(c2ncc(-c3ccc4ccccc4c3)[nH]2)C1 (stereo not shown)	5.30 to 6.00
CCC(=O)CCCN1CCN(C(=O)Cc2c[nH]c3ncccc23)C(c2ncc(-c3cc4ccccc4nc3OC)[nH]2)C1 (stereo not shown)	6.00 to 6.29
CCC(=O)CCCN1CCN(C(=O)Cc2c(C)[nH]c3ccc(OC)cc23)C(c2ncc(-c3cc4ccccc4nc3OC)o2)C1 (stereo not shown)	5.30 to 6.00
CCC(=O)CCCN1CCN(C(=O)Cc2c(C)[nH]c3ccc(OC)cc23)C(c2ncc(-c3ccccc3)[nH]2)C1 (stereo not shown)	6.30 to 7.00
CN1CCN(C(=O)C2(c3ccccc3)CC2)C(c2ncc(-c3ccc4ccccc4c3)[nH]2)C1 (stereo not shown)	5.30 to 6.00
CCC(=O)CCCN1CCN(C(=O)Cc2c[nH]c3ccccc23)[C@@H](c2ncc(-c3ccc4ccccc4c3)[nH]2)C1	5.30 to 6.00
COc1nc2ccccc2cc1-c1cnc([C@@H]2CN(Cc3cnn(C)c3)CCN2C(=O)Cn2c(C(F)(F)F)nc3ccccc32)[nH]1	6.30 to 7.00
COc1ccc2nc(C)n(CC(=O)N3CCN(C4CCN(C(C)=O)CC4)C[C@H]3c3ncc(-c4cc5ccccc5nc4OC)[nH]3)c2c1	6.00 to 6.29
COc1ccc2nc(C)n(CC(=O)N3CCN(C4CCS(=O)(=O)CC4)C[C@H]3c3ncc(-c4cc5ccccc5nc4OC)[nH]3)c2c1	6.00 to 6.29
COc1ccc2nc(C(F)(F)F)n(CC(=O)N3CCN(CCn4cnnc4)C[C@H]3c3ncc(-c4cc5ccccc5nc4OC)[nH]3)c2c1	5.30 to 6.00
COc1nc2ccccc2cc1-c1cnc([C@@H]2CN(Cc3ccccc3F)CCN2C(=O)Cn2c(C(F)(F)F)nc3ccccc32)[nH]1	6.30 to 7.00
COc1ccc2nc(C)n(CC(=O)N3CCN(Cc4nnc(C)o4)C[C@H]3c3ncc(-c4cc5ccccc5nc4OC)[nH]3)c2c1	6.30 to 7.00
CCC(=O)CCCN1CCN(C(=O)Cc2c[nH]c3ccccc23)[C@H](c2ncc(-c3ccc4ccccc4c3)[nH]2)C1	6.30 to 7.00
COC(=O)CCCN1CCN(C(=O)Cc2c(C)[nH]c3ccc(OC)cc23)C(c2ncc(-c3ccc4ccccc4c3)[nH]2)C1 (stereo not shown)	6.30 to 7.00
COc1ccc2nc(C)n(CC(=O)N3CCN(CC4CCOC4)C[C@H]3c3ncc(-c4cc5ccccc5n4C(=O)OC(C)(C)C)[nH]3)c2c1 (stereo partly shown)	5.30 to 6.00
